According to patent US20130267547A1, “PRODRUGS UTILIZING A TRANSPORTER-DIRECTED UPTAKE MECHANISM” (VIRGINIA COMMONWEALTH UNIVERSITY, priority 2010, published 2013):
Blank lines part the entries; values can stand above or below the molecule they belong to.

What was measured:
[1] = system: BeWo cells; test: Uptake of 3H-lopinavir, 3H-succinyl-lopinavir and 3H-carnitine-succinyl-lopinavir by BeWo cells, with and without transport inhibitors; conditions: for inhibition at 100 µM / inhibition at 250 µM: Homo sapiens, BeWo, read-out: Extent of Uptake Inhibition
Procedure: FIG. 10. […] BeWo cells (passage 38) were incubated with the compounds for 10 minutes at 37° C. or 4° C. in Dulbecco's phosphate buffered saline containing 0.05% bovine serum albumin. After incubation, the cells were washed with the cold buffer (lacking the compounds), and compounds were extracted from the cells into methanol followed by liquid scintillation analysis.
Specifically, bromosulfophthalein (BSP) is an inhibitor of several organic anion transporters (OATs; gene family SLC22A), as well as organic anion transporting polypeptides (OATPs; gene family SLCO). […] Finally, taurocholate is a classic substrate for bile salt transporters, including the sodium-dependent taurocholate transporter (NTCP; SLC10A1), the apical bile salt transporter (ASBT; SLC10A2), and certain OATPs.
The BeWo cell line is originally derived from a human choriocarcinoma. The BeWo cell line (Schwartz clone; passage 30) was a gift. BeWo cells in these studies is used between passages 30-70. BeWo cells are cultured in high glucose Dulbecco's modified Eagle's medium (DMEM) supplemented with 10% heat inactivated fetal bovine serum (FBS).

[2] = system: plasma esterases; test: Stability in human plasma; type: in vitro ADME
Procedure: The stability of SLPV was determined by incubating SLPV (20 μM) in human plasma from one healthy adult at 37° C. for 18 hours.

[3] = system: fresh human placental villous tissue; test: Incubation of DGLPV with fresh human placental villous tissue (HPLC of medium and tissue); type: in vitro ADME
Procedure: DGLPV was synthesized as described above. The amount of DGLPV in the media originally containing 100 uM DGLPV was measured using HPLC as described above, and again after a 30 minute incubation with fresh human placental villous tissue in the same media.
To confirm that the DGLPV was taken up by the tissue and hydrolyzed therein, HPLC was used to measure the amount of free LPV present in the tissue.

[4] = system: BeWo cells; test: Uptake of non-radiolabelled LPV esters in BeWo cells (LC-MS/MS); type: cell-based, human; conditions: for Rank order of uptake: non-radiolabelled esters
Procedure: (§1) NMR spectroscopy was performed on the compounds including GLPV (FIG. 14A). […] An LC-MS/MS assay was developed and validated to determine concentrations of the novel compounds in biological matrices and fluids, as shown in FIG. 14B.

[5] = Hydrolysis of LPV esters in vivo in rats
Procedure: as §1

[6] = system: human primary cytotrophoblast cells; test: Uptake of 3H-SLPV and 3H-LPV by primary cytotrophoblast cells; type: cell-based
Text: We also isolated primary cytotrophoblast cells from one term (39 weeks gestation) placenta delivered by cesarean section. […] (FIG. 7).

[7] = system: P-glycoprotein; conditions: mice; cited from earlier work

Structure (SMILES): Cc1cccc(C)c1OCC(=O)NC(Cc1ccccc1)C(CC(Cc1ccccc1)NC(=O)C(C(C)C)N1CCCNC1=O)OC(=O)CCC(=O)O (centres unmarked) [SLPV, Succinyl-lopinavir]
Reduction of uptake in the presence of linoleic acid ([1]; 40 μM linoleic acid (LA), BeWo cells, p<0.05): 34%

Structure (SMILES): Cc1cccc(C)c1OCC(=O)N[C@@H](Cc1ccccc1)[C@@H](O)C[C@H](Cc1ccccc1)NC(=O)[C@H](C(C)C)N1CCCNC1=O [LPV, lopinavir, reference compound]
Extent of Uptake Inhibition ([1]; Cold (4° C.), BeWo cells): 10%
inhibition at 100 µM [1]: 9%
inhibition at 250 µM [1]: 7%

half-life ([2]; human, plasma, preliminary data, read-out: Plasma hydrolysis half-life (converted)): ~2 h
Amount of DGLPV in the medium after incubation with tissue ([3]; 100 uM DGLPV, 30 minute incubation): decrease in DGLPV in the medium
Hydrolysis in the tissue to release free lopinavir, in words ([3]; human placental villous tissue): can also be hydrolyzed in the tissue
Temperature dependence of uptake, in words [4]: temperature dependent
Rank order of uptake [4]: GLPV>SLPV>DGLPV
Hydrolysis in vivo, in words [5]: capable of being hydrolyzed in vivo
Structure (SMILES): Cc1cccc(C)c1OCC(=O)NC(Cc1ccccc1)[C@H](CC(Cc1ccccc1)NC(=O)[C@H](C(C)C)N1CCCNC1=O)OC(=O)COCC(=O)O (some centres unmarked) [DGLPV, Diglycolic-Lopinavir]
Transport into human tissues, in words ([3]; human placental villous tissue): can also be transported into human tissues

Effect of ABC transporter inhibitor MK571 on uptake, in words [1]: slight increase in uptake
Effect of arachidonic acid on uptake, in words [1]: no effect
Temperature dependence of uptake, in words [1]: inhibited at reduced temperatures
Temperature dependence of uptake, in words ([1]; human, 10 minutes): significantly less than at 37 °C
Temperature dependence of uptake, in words ([6]; 4° C. vs 37° C., cytotrophoblasts): temperature-dependent
Uptake relative to uptake of LPV ([6]; human placental cytotrophoblasts, 37° C., after 24 hrs in culture): 10 fold
Stability in human plasma, in words ([2]; 20 μM, human plasma from one healthy adult, 37° C., 18 hours): completely stable to plasma esterases
Temperature dependence of uptake, in words [4]: temperature dependent
Rank order of uptake [4]: GLPV>SLPV>DGLPV
Structure (SMILES): Cc1cccc(C)c1OCC(=O)NC(Cc1ccccc1)[C@H](CC(Cc1ccccc1)NC(=O)[C@H](C(C)C)N1CCCNC1=O)OC(=O)CCC(=O)O (some centres unmarked) [SLPV, Succinyl-lopinavir]
Extent of Uptake Inhibition ([1]; Cold (4° C.), BeWo cells): 62%
inhibition at 100 µM [1]: -1%
inhibition at 250 µM [1]: 7%
Extent of Uptake Inhibition ([1]; linoleic acid (40 mM), BeWo cells): 40%
Extent of Uptake Inhibition ([1]; valproic acid (1 mM), BeWo cells): 5%

Structure (SMILES): CC(=O)O[C@H]1C(=O)[C@@]2(C)[C@H]([C@H](OC(=O)c3ccccc3)[C@]3(O)C[C@H](OC(=O)[C@H](O)[C@@H](NC(=O)c4ccccc4)c4ccccc4)C(C)=C1C3(C)C)[C@]1(OC(C)=O)CO[C@@H]1C[C@@H]2O [paclitaxel]
Fold more drug entering P-glycoprotein deficient Abcb1a−/−/1b−/− fetuses than wild type fetuses [7]: 16 fold
